# Measured values published in US10111881B2 (priority 2016, dated 2018).
# Tests used:
# MARV = test: microbe, parasite or virus in culture; type: cell-based, Marburgvirus (Musoke strain); conditions: for IC50: read-out: IC-50 (MARV)
# EBOV = test: organism not typed; type: cell-based, Zaire Ebolavirus (Mayinga strain); conditions: for IC50: read-out: IC-50 (EBOV)
smiles,measurement,setting,value
S=C(Nc1ccc(Cl)cc1)NC1CCN(Cc2ccccc2)CC1 [MLS000418057],Curve class (MARV),MARV,1.2
same,IC50,MARV,25.6 µM
same,Curve Class (EBOV),EBOV,4
COc1ccccc1CCN1CCCC(CN(C)CC(C)(C)CO)C1 (stereo not shown) [MLS001162808],Curve class (MARV),MARV,1.2
same,IC50,MARV,26.1 µM
same,Curve Class (EBOV),EBOV,1.3
same,IC50,EBOV,7.25 µM
CN(C)c1cc(NC(=O)CN2CCCC2)c2ccccc2n1.O=C(O)C(=O)O [MLS001047402],Curve class (MARV),MARV,1.2
same,IC50,MARV,25.9 µM
same,Curve Class (EBOV),EBOV,1.2
same,IC50,EBOV,5.26 µM
CCCN1CCN(CCCNC(=O)c2cc3c(=O)[nH]c4ccc(C)cc4c3s2)CC1 [MLS000673118],Curve class (MARV),MARV,1.2
same,IC50,MARV,25.1 µM
same,Curve Class (EBOV),EBOV,1.3
same,IC50,EBOV,25 µM
CCCCN(CCCC)CCNC(=O)CSCc1ccc(C)cc1.O=C(O)C(=O)O [MLS000689481],Curve class (MARV),MARV,1.2
same,IC50,MARV,12.8 µM
same,Curve Class (EBOV),EBOV,1.3
same,IC50,EBOV,12 µM
O=C1C2CCCN2C(c2cccs2)N1c1ccc(Cl)cc1 (stereo not shown) [MLS000092187],Curve class (MARV),MARV,1.2
same,IC50,MARV,25.2 µM
same,Curve Class (EBOV),EBOV,1.4
Cc1cc(OCCCCCNCCO)cc(C)c1Cl [MLS000106706],Curve class (MARV),MARV,1.2
same,IC50,MARV,25.2 µM
same,Curve Class (EBOV),EBOV,1.5
same,IC50,EBOV,0.595 µM
C=CCNCCOCCOc1ccc(Cl)cc1C(C)(C)C [MLS000666802],IC50,MARV,25.2 µM
same,Curve Class (EBOV),EBOV,1.5
same,IC50,EBOV,0.616 µM
C=C1C(=O)c2sccc2C(c2ccc(OC)c(OC)c2)C1COC(C)=O (stereo not shown) [MLS002702500],Curve class (MARV),MARV,1.3
same,IC50,MARV,2.06 µM
same,IC50,EBOV,5.93 µM
CCOc1cc(CNCCc2c[nH]c3ccccc23)cc(Cl)c1OC.Cl [MLS000718690],Curve class (MARV),MARV,1.2
same,IC50,MARV,25.3 µM
same,IC50,EBOV,2.77 µM
CCOC(=O)c1c(C)n(CC(O)CN(C)C)c2cc(Br)c(OC)cc12.Cl (stereo not shown) [MLS000684231],Curve class (MARV),MARV,1.2
same,IC50,MARV,4.88 µM
same,Curve Class (EBOV),EBOV,1.3
same,IC50,EBOV,6.48 µM
Cc1ccc(NC(=O)CN(C)C(=O)Cn2ncc(Cl)c(Cl)c2=O)cc1 [MLS000336293],IC50,MARV,24 µM
same,Curve Class (EBOV),EBOV,4
CN(C)CCCNC(=S)N1CCN(c2nc(-c3ccccc3)cs2)CC1 [MLS001207131],Curve class (MARV),MARV,1.2
same,IC50,MARV,25.3 µM
same,Curve Class (EBOV),EBOV,1.3
same,IC50,EBOV,25.2 µM
O=C(COC(=O)/C=C/c1cccs1)Nc1nc(-c2ccccc2)cs1 [MLS000391391],Curve class (MARV),MARV,1.2
same,IC50,MARV,25.3 µM
same,Curve Class (EBOV),EBOV,1.4
Cc1cccc(C)c1OCC(O)CNC(C)c1ccccc1.Cl (stereo not shown) [MLS001177927],Curve class (MARV),MARV,1.2
same,IC50,MARV,25.8 µM
same,Curve Class (EBOV),EBOV,1.5
same,IC50,EBOV,6.42 µM
Oc1ccc(Nc2ccnc3cc(Cl)ccc23)cc1 [MLS000737975],IC50,MARV,25.2 µM
same,Curve Class (EBOV),EBOV,4
Cc1c(C(=O)NCCN(C)C)oc2ccc(S(=O)(=O)N3CCCC3)cc12 [MLS000936795],Curve class (MARV),MARV,1.2
same,IC50,MARV,25.4 µM
same,Curve Class (EBOV),EBOV,1.4
Cc1ccc(C(=O)N/C(=C/c2ccc(-c3ccc([N+](=O)[O-])cc3)o2)C(=O)NCCCN(C)C)cc1 [MLS001180408],IC50,MARV,12.5 µM
same,Curve Class (EBOV),EBOV,4
Cc1cc(Nc2ccc(Cl)cc2)nc(N2CCOCC2)n1 [MLS001029946],Curve class (MARV),MARV,1.2
same,IC50,MARV,~43.2 µM
same,Curve Class (EBOV),EBOV,1.6
same,IC50,EBOV,1.52 µM
Fc1ccc(C(c2nnnn2Cc2cccs2)N2CCN(C3CCCCC3)CC2)cc1 (stereo not shown) [MLS000880330],Curve class (MARV),MARV,1.2
same,IC50,MARV,25.8 µM
same,Curve Class (EBOV),EBOV,1.6
same,IC50,EBOV,6.38 µM
COc1ccccc1C(=O)O/N=C(\N)c1ccccn1 [MLS001045935],Curve class (MARV),MARV,1.2
same,IC50,MARV,27.9 µM
same,Curve Class (EBOV),EBOV,1.4
OC(CN1CCCCC1)Cn1c2ccc(Cl)cc2c2cc(Cl)ccc21 (stereo not shown) [MLS001181479],Curve class (MARV),MARV,1.2
same,IC50,MARV,25.6 µM
same,Curve Class (EBOV),EBOV,4
